# Measured values: publication PMC12120719, “Targeting Senescence with Apigenin Improves Chemotherapeutic Efficacy and Ameliorates Age‐Related Conditions in Mice” (Advanced Science, 2025)
# Molecular target: T1, PRDX6 (peroxiredoxin 6) (Homo sapiens, UniProt P30041)
# T1 construct: recombinant human PRDX6 (SinoBiological), immobilized on CM5 chip
# T1 sequence (P30041 2-224): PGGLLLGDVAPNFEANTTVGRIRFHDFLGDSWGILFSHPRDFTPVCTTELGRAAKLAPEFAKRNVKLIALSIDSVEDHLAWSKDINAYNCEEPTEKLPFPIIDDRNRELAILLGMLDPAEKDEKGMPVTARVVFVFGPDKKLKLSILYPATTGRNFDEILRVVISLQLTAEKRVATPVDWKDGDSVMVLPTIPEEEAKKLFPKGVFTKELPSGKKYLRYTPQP
# Test: SPR (Biacore T200); supported by MST (Kd […]), CETSA, DARTS, biotin-probe pulldown
# Format: binding
compound,measurement,value
"O=c1cc(-c2ccc(O)cc2)oc2cc(O)cc(O)c12 [apigenin, 4′,5,7‐trihydroxyflavone]",Kd,237 nM
